Experimental data reported in patent publication US7618641B2, “Functionally reconstituted viral membranes containing adjuvant” (priority 2003, dated 2009).

System: influenza proteins (A/Panama/2007/99)
Assay type: in vivo, Balb/C mice
Conditions: intranasal, day 0 and 14, 5 μg influenza proteins, lipopeptide in reconstituted membranes

Row | Substance | enhancement of the immune response
1 | N-palmitoyl-S-2,3(bispalmitoyloxy)-propyl-cysteinyl-seryl-(lysil)3-lysine [lysine derivative] | approximately equivalent enhancement of the immune response
2 | N-palmitoyl-S-2,3(bispalmitoyloxy)-propyl-cysteinyl-seryl-(prolyl)3-proline [proline derivative] | approximately equivalent enhancement of the immune response
